In patent US20260364184A1, “COMPOUND BASED ON OXOISOINDOLINYL-SUBSTITUTED TETRAHYDROPYRIMIDINE-DIONE AND USE THEREOF” (GLUETACS THERAPEUTICS (SHANGHAI) CO., LTD., priority 2023, published 2026):

Assays:
[1] = test system: Human large cell immunoblastic lymphoma cell line SR; test: Inhibition of SR cell proliferation (CellTiter luminescent viability); assay type: cell-based; conditions: Table IE1, CDK4/6 inhibitor-based, 96 hours, read-out: Inhibitory activity (IC50, nM) on tumor cell proliferation, SR
Experimental: The tumor cells used herein were cultured in a cell culture medium listed in table 3 at 37 °C in an incubator with 5% CO2. Prior to experimentation, all cell lines used were correctly identified by STR profiling, and tested negative for mycoplasma contamination using a mycoplasma detection kit through routine screenings.
The IC50 values of the compounds of the present disclosure (including the compounds in Table 1, Table 2, and Examples 1-468) were determined using the CellTiter-Meiluncell Luminescent Cell Viability Assay Kit from Dalian Meilun Biotech Co., Ltd. The detailed procedure is as follows: Tumor cells were seeded in 96-well cell culture plates at the densities specified in Table 4. On the following day, the test compounds of the present disclosure were subjected to serial dilution. The dilution can be performed according to one of the following two methods: • (1) The first dilution method: The test compounds of the present disclosure (including the compounds in Table 1, Table 2, and Examples 1-468) were subjected to 5-fold serial dilutions starting from a highest concentration of 2000 μM, resulting in a total of 9 concentrations from high to low (2000, 400, 80, 16, 3.2, 0.64, 0.128, 0.0256, 0.00512 μM). Subsequently, 0.5 μL of the test compound dilution was transferred into the 96-well plate containing the cells, with each well containing 100 μL of cell culture medium. […] Into the 96-well plate, the diluted test compounds and corresponding detection reagents were added, resulting in final test compound concentrations of 500 nM and 10 nM, respectively. The experimental procedure is described below using the diluted 2 μM test compound as an example.
0.5 μL of the aforementioned diluted compound of the present disclosure (including the compounds in Table 1, Table 2, and Examples 1-468) was added to the seeded cells in 100 μL of medium, yielding a final test compound concentration of 10 nM. After the cells were treated with the compounds of the present disclosure for a specified period, the cell viability assay reagent was added to the culture medium according to the kit's instructions to determine cell viability. […] All controls were treated using the same procedure as the compounds of the present disclosure. The growth inhibition curves for the compounds of the present disclosure were plotted using Prism GraphPad software, and the IC50 values were calculated therefrom.

[2] = test system: Human Acute T Lymphoblastic Leukemia Cells (Molt-4); test: Inhibition of Molt-4 cell proliferation (CellTiter luminescent viability); assay type: cell-based; conditions: Table IE1, CDK4/6 inhibitor-based; Molt-4, 96 hours; read-out: Inhibitory activity (IC50, nM) on tumor cell proliferation, Molt-4
[3] = test system: Human myeloid monocytic leukemia cell line (MV-4-11); test: Inhibition of MV-4-11 cell proliferation (CellTiter luminescent viability); assay type: cell-based; conditions: for IC50: Table IE1, CDK4/6 inhibitor-based, MV-4-11, 96 hours, read-out: Inhibitory activity (IC50, nM) on tumor cell proliferation, MV-4-11; for inhibition at 0.01 µM / inhibition at 0.5 µM: Homo sapiens, MV4-11, Table IE3, CDK4/6 inhibitor-based, 96 hours; for inhibition at 0.01 µM: MV-4-11, 10 nM, read-out: Inhibition Rate at 10 nM (%); for inhibition at 0.5 µM: MV-4-11, 500 nM, read-out: Inhibition Rate at 500 nM (%)
In short: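 Cells are seeded in 96-well plates, cultured at 37 °C, 5% CO2, and treated next day with 5-fold serial compound dilutions (stock series from 2000 μM; 0.5 μL into 100 μL medium). Viability is read by CellTiter-Meiluncell luminescence after the set exposure, and IC50 is taken from growth-inhibition curves.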

[4] = test system: Human acute lymphocytic leukemia T lymphocytes cell line (CCRF-CEM); test: Inhibition of CCRF-CEM cell proliferation (CellTiter luminescent viability); assay type: cell-based; conditions: Table IE1, CDK4/6 inhibitor-based, 96 hours, read-out: Inhibitory activity (IC50, nM) on tumor cell proliferation, CCRF-CEM
CDK4 = molecular target: T1, CDK4 (Homo sapiens, UniProt P11802+Q96SW2); test: Western blot degradation of CDK4; assay type: cell-based; conditions: MDA-MB-231 Cell; 24 hours
T1 construct: expression of target proteins in cells; endogenous in cells
T1 sequence (P11802 whole entry): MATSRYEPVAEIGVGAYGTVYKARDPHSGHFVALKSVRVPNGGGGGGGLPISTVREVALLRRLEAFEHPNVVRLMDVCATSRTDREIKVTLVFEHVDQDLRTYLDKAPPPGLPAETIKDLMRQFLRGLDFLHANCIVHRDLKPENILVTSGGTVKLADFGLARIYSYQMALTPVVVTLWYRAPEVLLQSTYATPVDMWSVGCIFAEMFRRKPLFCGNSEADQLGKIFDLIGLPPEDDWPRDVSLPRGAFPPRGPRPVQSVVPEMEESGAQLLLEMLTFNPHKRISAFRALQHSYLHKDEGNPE
T1 sequence (Q96SW2 whole entry): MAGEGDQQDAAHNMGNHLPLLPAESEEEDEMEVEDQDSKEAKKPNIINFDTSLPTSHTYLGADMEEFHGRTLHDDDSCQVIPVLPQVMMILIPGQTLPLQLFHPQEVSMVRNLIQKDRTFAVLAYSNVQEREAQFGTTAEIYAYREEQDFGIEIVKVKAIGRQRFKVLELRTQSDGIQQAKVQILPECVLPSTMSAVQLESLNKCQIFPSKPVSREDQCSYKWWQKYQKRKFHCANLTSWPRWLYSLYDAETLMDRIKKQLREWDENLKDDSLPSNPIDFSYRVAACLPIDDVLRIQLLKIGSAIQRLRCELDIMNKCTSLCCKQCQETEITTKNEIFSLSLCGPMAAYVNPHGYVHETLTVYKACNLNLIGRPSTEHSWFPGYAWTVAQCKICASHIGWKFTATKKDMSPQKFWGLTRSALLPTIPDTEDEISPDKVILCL
T1 sequence (Q16531 whole entry partner): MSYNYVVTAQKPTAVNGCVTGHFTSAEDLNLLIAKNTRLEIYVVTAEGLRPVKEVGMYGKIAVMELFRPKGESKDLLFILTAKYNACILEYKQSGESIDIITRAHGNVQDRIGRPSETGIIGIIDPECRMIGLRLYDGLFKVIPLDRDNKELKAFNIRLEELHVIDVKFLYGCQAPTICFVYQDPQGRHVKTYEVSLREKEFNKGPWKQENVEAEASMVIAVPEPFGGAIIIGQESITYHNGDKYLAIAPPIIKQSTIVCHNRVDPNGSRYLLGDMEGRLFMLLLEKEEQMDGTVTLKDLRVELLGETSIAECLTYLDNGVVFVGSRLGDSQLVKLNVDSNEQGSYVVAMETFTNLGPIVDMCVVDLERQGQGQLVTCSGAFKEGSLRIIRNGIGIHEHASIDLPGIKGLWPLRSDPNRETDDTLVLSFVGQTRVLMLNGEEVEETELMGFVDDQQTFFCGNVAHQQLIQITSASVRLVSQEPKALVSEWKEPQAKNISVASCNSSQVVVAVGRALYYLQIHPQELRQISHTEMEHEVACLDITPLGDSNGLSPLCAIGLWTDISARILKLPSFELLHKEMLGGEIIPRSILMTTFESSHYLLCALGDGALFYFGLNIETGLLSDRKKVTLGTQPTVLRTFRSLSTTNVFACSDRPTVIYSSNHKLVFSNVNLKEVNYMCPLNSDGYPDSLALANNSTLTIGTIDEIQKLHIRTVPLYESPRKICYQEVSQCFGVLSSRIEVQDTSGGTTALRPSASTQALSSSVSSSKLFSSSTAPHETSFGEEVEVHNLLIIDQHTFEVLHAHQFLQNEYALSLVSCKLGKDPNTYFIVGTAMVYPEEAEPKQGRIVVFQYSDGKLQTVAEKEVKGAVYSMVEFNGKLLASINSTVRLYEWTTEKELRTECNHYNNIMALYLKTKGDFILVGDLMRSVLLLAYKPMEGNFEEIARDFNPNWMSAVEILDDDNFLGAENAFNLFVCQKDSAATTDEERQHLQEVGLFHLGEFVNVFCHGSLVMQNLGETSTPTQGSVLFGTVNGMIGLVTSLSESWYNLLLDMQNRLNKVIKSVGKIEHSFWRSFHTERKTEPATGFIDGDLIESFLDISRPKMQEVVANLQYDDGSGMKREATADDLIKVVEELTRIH
Experimental: (§1) Conventional Western blot assay was performed to evaluate the effects of the compounds of the present disclosure on the expression of target proteins in cells.
(§2) (1) Cell Seeding and Protein Harvesting: The selected cells were processed according to the cell seeding procedure and protein harvesting procedure in Table II-2.
(§3) (2) To the collected supernatant, 5×SDS sample loading buffer was added, followed by denaturation at 95 °C for 5 minutes. The denatured samples were then separated by SDS-PAGE electrophoresis on a polyacrylamide gel. Proteins were transferred to a nitrocellulose membrane (0.45 μm NC membrane), blocked with blocking buffer at room temperature for 1 hour, and subjected to antibody incubation and development procedures according to the antibody manufacturer's instructions (Cell Signaling Technology).
(§4) Half-Maximal Degradation Concentration value (the drug concentration required for degrading proteins by 50%, abbreviated as DC50) reads method: comparing the grayscale values of Western blot bands from drug-treated samples with those from blank DMSO-treated controls, and identifying the drug concentration range at which the grayscale value is half that of the DMSO-treated control bands.
(§5) DC50 values can be calculated using ImageJ software to measure grayscale values of Western blot bands from drug-treated samples. The concentration-response curve is fitted to estimate the drug concentration corresponding to half the grayscale value.
(§6) Target protein remaining (%) refers to the percentage of target protein remaining in cells after treatment with protein degrader compounds.
(§7) Calculation method for target protein remaining (%): Use ImageJ software to measure grayscale values of Western blot bands from drug (protein degrader)-treated samples. The grayscale value of drug-treated bands is divided by that of internal control protein bands, and the resulting quotient is normalized to obtain the relative percentage of remaining target protein after protein degrader treatment.
(§8) Target protein degradation rate (%)=1−target protein remaining (%).

CDK6 = molecular target: T2, CDK6 (Homo sapiens, UniProt Q00534+Q96SW2); test: Western blot degradation of CDK6; assay type: cell-based; conditions: MDA-MB-231 Cell; 24 hours
T2 construct: expression of target proteins in cells; endogenous in cells
T2 sequence (Q00534 whole entry): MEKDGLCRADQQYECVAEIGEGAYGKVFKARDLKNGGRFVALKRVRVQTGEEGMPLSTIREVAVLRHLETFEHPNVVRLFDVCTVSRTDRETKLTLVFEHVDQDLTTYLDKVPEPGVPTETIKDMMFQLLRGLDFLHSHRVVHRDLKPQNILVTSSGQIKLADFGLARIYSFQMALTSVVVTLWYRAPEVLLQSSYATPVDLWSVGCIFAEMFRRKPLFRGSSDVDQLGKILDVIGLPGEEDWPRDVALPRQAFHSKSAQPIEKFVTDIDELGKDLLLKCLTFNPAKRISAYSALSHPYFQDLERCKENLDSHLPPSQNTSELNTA
T2 sequence (Q96SW2 whole entry): as the sequence (Q96SW2 whole entry) above
T2 sequence (Q16531 whole entry partner): as the sequence (Q16531 whole entry partner) above
Experimental: as §1, §2, §3, §4, §5, §6, §7, §8

[5] = test system: Human lung cancer cell line (H292); test: Inhibition of H292 cell proliferation (CellTiter luminescent viability); assay type: cell-based; conditions: NCI-H292, Table IE2, CDK4/6 inhibitor-based, 96 hours; for inhibition at 0.01 µM: H292, 10 nM, read-out: Inhibition Rate at 10 nM (%); for inhibition at 0.5 µM: H292, 500 nM, read-out: Inhibition Rate at 500 nM (%)
[6] = molecular target: T3, human Cereblon WT GST-tagged protein (CRBN) (Homo sapiens, UniProt Q96SW2); test: CRBN binding by HTRF (Cereblon binding kit)
T3 construct: purchased CISBIO 64BDCRBNPEH
T3 sequence (Q96SW2 whole entry): as the sequence (Q96SW2 whole entry) above
In short: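 GST-tagged human Cereblon WT was incubated 3 h at room temperature with compound, thalidomide-Re tracer and Eu anti-GST antibody. Final compound concentrations were 10 to 0.00064 µM (7 points) or 2 and 0.5 µM. Inhibition rate was calculated from HTRF 665/620 nm ratios versus solvent and blank controls.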

SMILES	IC50 [1]	IC50 [2]	IC50 [3]	IC50 [4]	Degradation of substrate protein CDK6 (substrate protein remaining %) (CDK6)	Inhibition Rate at 0.5 μM (%) ([6]; 0.5 μM)	Inhibition Rate at 2 μM (%) ([6]; 2 μM)	Degradation of substrate protein CDK4 (substrate protein remaining %) (CDK4)	inhibition at 0.01 µM [3]	inhibition at 0.5 µM [3]	inhibition at 0.01 µM [5]	inhibition at 0.5 µM [5]
CC(=O)c1c(C)c2cnc(Nc3ccc(N4CCN(Cc5ccc6c(c5)CN(N5CCC(=O)NC5=O)C6=O)CC4)cn3)nc2n(C2CCCC2)c1=O [GT-06573, 1-(5-((4-(6-((6-acetyl-8-cyclopentyl-5-methyl-7-oxo-7,8-dihydropyrido[2,3-d]pyrimidin-2-yl)amino)pyridin-3-yl)piperazin-1-yl)methyl)-1-oxoisoindolin-2-yl)dihydropyrimidine-2,4 (1H,3H)-dione]	–	–	–	–	A (0%≤substrate protein remaining %≤80%)	–	–	B (80%<substrate protein remaining %≤100%)	40 to 60%	60 to 80%	30 to 35%	40 to 60%
CN(C)C(=O)c1cc2cnc(Nc3ccc(N4CCC(CN5CCN(C6CCN(c7ccc8c(c7)C(=O)N(N7CCC(=O)NC7=O)C8=O)CC6)CC5)CC4)cn3)nc2n1C1CCCC1 [GT-05205, 7-cyclopentyl-2-((5-(4-((4-(1-(2-(2,4-dioxotetrahydropyrimidin-1(2H)-yl)-1,3-dioxoisoindolin-5-yl)piperidin-4-yl)piperazin-1-yl)methyl)piperidin-1-yl)pyridin-2-yl)amino)-N,N-dimethyl-7H-pyrrolo[2,3-d]pyrimidine-6-carboxamide]	–	–	–	–	A (0%≤substrate protein remaining %≤80%)	–	–	B (80%<substrate protein remaining %≤100%)	20 to 25%	40 to 60%	35 to 40%	35 to 40%
CN(C)C(=O)c1cc2cnc(Nc3ccc(N4CCC(CN5C6CCC5CN(c5ccc7c(c5)C(=O)N(N5CCC(=O)NC5=O)C7=O)C6)CC4)cn3)nc2n1C1CCCC1 [GT-05812, 7-cyclopentyl-2-((5-(4-((3-(2-(2,4-dioxotetrahydropyrimidin-1(2H)-yl)-1,3-dioxoisoindolin-5-yl)-3,8-diazabicyclo[3.2.1]octan-8-yl)methyl)piperidin-1-yl)pyridin-2-yl)amino)-N,N-dimethyl-7H-pyrrolo[2,3-d]pyrimidine-6-carboxamide]	–	–	–	–	A (0%≤substrate protein remaining %≤80%)	–	–	B (80%<substrate protein remaining %≤100%)	15 to 20%	40 to 60%	35 to 40%	30 to 35%
Cc1nc2c(F)cc(-c3nc(Nc4ccc(CN5CCN(CC6CCN(c7cccc8c7C(=O)N(N7CCC(=O)NC7=O)C8=O)CC6)CC5)cn4)ncc3F)cc2n1C(C)C [GT-06663, 2-(2,4-dioxotetrahydropyrimidin-1(2H)-yl)-4-(4-((4-((6-((5-fluoro-4-(4-fluoro-1-isopropyl-2-methyl-1H-benzo[d]imidazol-6-yl)pyrimidin-2-yl)amino)pyridin-3-yl)methyl)piperazin-1-yl)methyl)piperidin-1-yl)isoindoline-1,3-dione]	400 to 800 nM	–	10 to 50 nM	–	A (0%≤substrate protein remaining %≤80%)	a2 (20% < a2 ≤ 30%)	a5 (53% < a5 ≤ 60%)	B (80%<substrate protein remaining %≤100%)	–	–	–	–

Further lines, with some results ahead:

IC50 [1]	IC50 [2]	IC50 [3]	IC50 [4]	Degradation of substrate protein CDK6 (substrate protein remaining %) (CDK6)	Inhibition Rate at 0.5 μM (%) ([6]; 0.5 μM)	Inhibition Rate at 2 μM (%) ([6]; 2 μM)	SMILES	Degradation of substrate protein CDK4 (substrate protein remaining %) (CDK4)	inhibition at 0.01 µM [3]	inhibition at 0.5 µM [3]	inhibition at 0.01 µM [5]	inhibition at 0.5 µM [5]
100 to 300 nM	400 to 800 nM	50 to 100 nM	400 to 800 nM	A (0%≤substrate protein remaining %≤80%)	–	–	Cc1nc2c(F)cc(-c3nc(Nc4ccc(N5CCC(N(C)CC6CCN(c7cccc8c7C(=O)N(N7CCC(=O)NC7=O)C8=O)CC6)CC5)cn4)ncc3F)cc2n1C(C)C [GT-06734, 2-(2,4-dioxotetrahydropyrimidin-1(2H)-yl)-4-(4-(((1-(6-((5-fluoro-4-(4-fluoro-1-isopropyl-2-methyl-1H-benzo[d]imidazol-6-yl)pyrimidin-2-yl)amino)pyridin-3-yl)piperidin-4-yl)(methyl)amino)methyl)piperidin-1-yl)isoindoline-1,3-dione]	A (0%≤substrate protein remaining %≤80%)	–	–	–	–
100 to 300 nM	–	300 to 400 nM	–	A (0%≤substrate protein remaining %≤80%)	–	–	Cc1nc2c(F)cc(-c3nc(Nc4ccc(N5CCC(N6CCN(Cc7ccc8c(c7)C(=O)N(N7CCC(=O)NC7=O)C8=O)CC6)CC5)cn4)ncc3F)cc2n1C(C)C [GT-06737, 2-(2,4-dioxotetrahydropyrimidin-1(2H)-yl)-5-((4-(1-(6-((5-fluoro-4-(4-fluoro-1-isopropyl-2-methyl-1H-benzo[d]imidazol-6-yl)pyrimidin-2-yl)amino)pyridin-3-yl)piperidin-4-yl)piperazin-1-yl)methyl)isoindoline-1,3-dione]	B (80%<substrate protein remaining %≤100%)	–	–	–	–
100 to 300 nM	100 to 300 nM	10 to 50 nM	100 to 300 nM	A (0%≤substrate protein remaining %≤80%)	–	–	Cc1nc2c(F)cc(-c3nc(Nc4ccc(N5CCC(N(C)CC6CCN(c7ccc8c(c7)C(=O)N(N7CCC(=O)NC7=O)C8=O)CC6)CC5)cn4)ncc3F)cc2n1C(C)C [GT-06733, 2-(2,4-dioxotetrahydropyrimidin-1(2H)-yl)-5-(4-(((1-(6-((5-fluoro-4-(4-fluoro-1-isopropyl-2-methyl-1H-benzo[d]imidazol-6-yl)pyrimidin-2-yl)amino)pyridin-3-yl)piperidin-4-yl)(methyl)amino)methyl)piperidin-1-yl)isoindoline-1,3-dione]	A (0%≤substrate protein remaining %≤80%)	–	–	–	–
